Laboratory results from ChEMBL document CHEMBL2384976, “Synthesis and cytotoxic evaluation of novel pyrimidine deoxyapiothionucleosides” (Bioorg Med Chem Lett, 2013).

What was measured:
A549 = assay: Cytotoxicity against human A549 cells after 48 hrs by MTT assay; assay type: functional, cell-based
HeLa = assay: Cytotoxicity against human HeLa cells after 48 hrs by MTT assay; assay type: functional, cell-based
MRC5 = assay: Cytotoxicity against human MRC5 cells after 48 hrs by MTT assay; assay type: cell-based
HT-29 [1] = assay: Cytotoxicity against human HT-29 cells after 48 hrs by MTT assay; assay type: functional, cell-based
MCF7 = assay: Cytotoxicity against human MCF7 cells after 48 hrs by MTT assay; assay type: functional, cell-based
MDA-MB-231 [2] = assay: Cytotoxicity against human MDA-MB-231 cells after 48 hrs by MTT assay; assay type: functional, cell-based
HT-29 [3] = assay: Induction of cytotoxic response in human HT-29 cells after 48 hrs by MTT assay; assay type: functional
MDA-MB-231 [4] = assay: Induction of cytotoxic response in human MDA-MB-231 cells after 48 hrs by MTT assay; assay type: functional

Structure (SMILES) | IC50 (A549; Homo sapiens, A549, 48 h) [µM] | IC50 (HeLa; Homo sapiens, HeLa, 48 h) [µM] | IC50 (MRC5; Homo sapiens, MRC5, 48 h) [µM] | IC50 (HT-29 [1]; Homo sapiens, HT-29, 48 h) [µM] | IC50 (MCF7; Homo sapiens, MCF7, 48 h) [µM] | IC50 (MDA-MB-231 [2]; Homo sapiens, MDA-MB-231, 48 h) [µM] | IC50 (A549; a549) [µM] | IC50 (HeLa; hela) [µM] | IC50 (MRC5; mrc5) [µM] | IC50 (HT-29 [1]; ht-29) [µM] | IC50 (MCF7; mcf7) [µM] | IC50 (MDA-MB-231 [2]; mda-mb-231) [µM] | Activity (HT-29 [3]) [%] | Activity (MDA-MB-231 [4]) [%]
Cc1cn([C@H]2SC[C@](C)(O)[C@@H]2O)c(=O)[nH]c1=O | 30 | 6870 | 290 | 640 | 172 | 52 | – | – | – | – | – | – | – | –
C[C@@]1(O)CS[C@@H](n2ccc(N)nc2=O)[C@@H]1O [listing 1 of 2 here] | – | – | – | – | – | – | 9 | 17 | 147 | 6400 | 139 | 10 | – | –
Cc1cn([C@@H]2SC[C@@](C)(O)[C@H]2O)c(=O)[nH]c1=O | 41 | 214 | 269 | 5 | 323 | 3 | – | – | – | – | – | – | 62 | 57
C[C@]1(O)CS[C@H](n2ccc(=O)[nH]c2=O)[C@H]1O | 30 | 4320 | 1000 | 269 | 100 | 14 | – | – | – | – | – | – | – | –
C[C@@]1(O)CS[C@@H](n2ccc(=O)[nH]c2=O)[C@@H]1O | 4270 | 214 | 630 | 8 | 193 | 19 | – | – | – | – | – | – | – | –
C[C@]1(O)CS[C@H](n2ccc(N)nc2=O)[C@H]1O | 223 | 12 | 221 | 5990 | 13 | 11 | – | – | – | – | – | – | – | –
C[C@@]1(O)CS[C@@H](n2ccc(N)nc2=O)[C@@H]1O [listing 2 of 2 here] | – | – | – | – | – | – | 1320 | 106 | 4340 | 2270 | 1980 | 58 | – | –
